Tests used:
CFTR ΔF508 mutant = target: T1, CFTR ΔF508 mutant (Homo sapiens, UniProt P13569, DEL508-508); assay: YFP-halide influx assay for the CFTR-ΔF508 mutation (384 well, FDSS/μCell); type: cell-based; details: CFBE41o- cells, CFTR-ΔF508, 1×D-PBS, fluorescence after 36 seconds
T1 construct: expressed in transfected cells; host or cells: CFBE41o- (adenoviral transduction)
Source text: The YFP halide influx assay measures the functionality of the cystic fibrosis Transmembrane Conductance regulator (CFTR) channels in the cystic fibrosis bronchial epithelium cell line CFBE41o-. The assay is used to evaluate the capacity of compounds to increase the open probability of existing CFTR channels in the membrane. It makes use of the observation that the yellow fluorescent protein (YFP) variant YFP H148Q, I152L has its fluorescence substantially quenched by halide ions like Cl— and I—. (Galietta, Haggie, & Verkman, 2001) (Nagai, et al., 2002)
For this purpose, CFBE41o-cells are seeded in 384 well plates (3000 CFBE cells/well). One day after seeding, the CFBE cells are transduced with adenoviral vectors that direct the expression of the CFTR ΔF508 mutant and of the YFP reporter. Cells are incubated at 27° C., 5% CO2 for 24 hours so as to allow for the proper folding and migration to the membrane of the CFTR channel or treated with a CFTR modulator during 24 h at 37° C.
(§1) The I— induced quenching of fluorescence is recorded on an immediately after injection of I— for 2 min on an FDSS/μCell (Hamamatsu). The capacity of a compound to increase the channel opening is directly correlated with the decrease in fluorescence, and is expressed as (1-(fluorescence after 36 seconds (F)/fluorescence before injection (F0))) and an EC50 can be derived from a (1-F/F0) vs compound concentration plot.

CFTR G551D mutant = target: T2, CFTR G551D mutant (Homo sapiens, UniProt P13569, G551D); assay: YFP-halide influx assay for the CFTR-G551D mutation; type: cell-based; details: HEK293 cells, forskolin 10.67 μM
T2 construct: expressed in transfected cells; host or cells: HEK293 (reverse transfection with plasmid)
Source text: The YFP halide influx assay measures the functionality of the cystic fibrosis Transmembrane Conductance regulator (CFTR) channels. The assay is used to evaluate the capacity of compounds to increase the channel opening of existing mutant CFTR channels in the membrane. It makes use of the observation that the yellow fluorescent protein (YFP) variant YFP H148Q, I152L, […] has its fluorescence substantially quenched by halide ions like Cl^− and I^−. (Galietta, Haggie, & Verkman, 2001)
For this purpose, HEK293-cells are seeded in 96 well plates. During seeding, the cells are reverse-transfected with plasmid vectors that direct the expression of the CFTR G551D mutant and of the YFP reporter. Cells are incubated at 37° C., 5% CO2 for 24 hours so as to allow for sufficient expression of the CFTR protein.
as §1, with “I^−-induced” for “I— induced”, “recorded” for “recorded on an”, “I^−” for “I—”, “7 seconds.” for “2 min on an FDSS/μCell (Hamamatsu).”, “7” for “36”

T2 sequence (P13569 whole entry G551D): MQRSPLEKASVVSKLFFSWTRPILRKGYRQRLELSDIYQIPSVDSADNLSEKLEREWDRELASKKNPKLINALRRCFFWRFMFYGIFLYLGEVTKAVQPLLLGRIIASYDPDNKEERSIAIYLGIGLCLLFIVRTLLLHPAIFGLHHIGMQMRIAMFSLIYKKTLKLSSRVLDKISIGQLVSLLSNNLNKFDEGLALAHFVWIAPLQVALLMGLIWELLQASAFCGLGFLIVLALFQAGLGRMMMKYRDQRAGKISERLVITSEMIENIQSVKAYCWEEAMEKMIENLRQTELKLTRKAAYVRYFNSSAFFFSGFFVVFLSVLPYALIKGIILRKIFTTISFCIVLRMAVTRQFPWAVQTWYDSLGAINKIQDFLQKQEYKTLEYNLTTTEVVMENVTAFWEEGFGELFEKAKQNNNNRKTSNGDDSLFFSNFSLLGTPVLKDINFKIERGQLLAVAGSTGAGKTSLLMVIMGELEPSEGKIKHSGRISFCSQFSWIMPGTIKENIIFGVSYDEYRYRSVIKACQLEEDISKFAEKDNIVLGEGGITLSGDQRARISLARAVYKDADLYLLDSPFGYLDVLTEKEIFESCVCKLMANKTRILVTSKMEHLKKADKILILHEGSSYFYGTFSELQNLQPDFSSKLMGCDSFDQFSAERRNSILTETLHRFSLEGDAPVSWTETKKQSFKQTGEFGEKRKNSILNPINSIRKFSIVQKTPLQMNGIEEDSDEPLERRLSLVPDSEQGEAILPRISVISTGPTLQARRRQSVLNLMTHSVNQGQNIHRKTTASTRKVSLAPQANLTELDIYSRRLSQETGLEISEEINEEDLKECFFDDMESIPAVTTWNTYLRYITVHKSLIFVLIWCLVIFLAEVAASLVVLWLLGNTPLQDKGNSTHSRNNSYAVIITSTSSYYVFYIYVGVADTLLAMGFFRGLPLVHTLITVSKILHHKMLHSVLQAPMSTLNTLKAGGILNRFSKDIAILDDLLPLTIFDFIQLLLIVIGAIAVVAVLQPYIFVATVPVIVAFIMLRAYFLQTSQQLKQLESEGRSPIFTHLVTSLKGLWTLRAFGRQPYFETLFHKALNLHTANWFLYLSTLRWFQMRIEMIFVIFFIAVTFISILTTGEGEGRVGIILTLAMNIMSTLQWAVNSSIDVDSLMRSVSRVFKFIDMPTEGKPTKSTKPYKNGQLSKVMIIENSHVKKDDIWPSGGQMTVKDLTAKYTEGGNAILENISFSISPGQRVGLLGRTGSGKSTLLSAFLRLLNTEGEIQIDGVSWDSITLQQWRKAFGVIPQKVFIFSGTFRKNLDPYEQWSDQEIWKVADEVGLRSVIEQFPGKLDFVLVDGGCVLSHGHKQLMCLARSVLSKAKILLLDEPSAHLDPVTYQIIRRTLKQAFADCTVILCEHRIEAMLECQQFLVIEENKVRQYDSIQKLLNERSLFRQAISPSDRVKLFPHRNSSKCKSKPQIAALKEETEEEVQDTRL
T1 sequence (P13569 with tags, fused parts or gaps DEL508-508): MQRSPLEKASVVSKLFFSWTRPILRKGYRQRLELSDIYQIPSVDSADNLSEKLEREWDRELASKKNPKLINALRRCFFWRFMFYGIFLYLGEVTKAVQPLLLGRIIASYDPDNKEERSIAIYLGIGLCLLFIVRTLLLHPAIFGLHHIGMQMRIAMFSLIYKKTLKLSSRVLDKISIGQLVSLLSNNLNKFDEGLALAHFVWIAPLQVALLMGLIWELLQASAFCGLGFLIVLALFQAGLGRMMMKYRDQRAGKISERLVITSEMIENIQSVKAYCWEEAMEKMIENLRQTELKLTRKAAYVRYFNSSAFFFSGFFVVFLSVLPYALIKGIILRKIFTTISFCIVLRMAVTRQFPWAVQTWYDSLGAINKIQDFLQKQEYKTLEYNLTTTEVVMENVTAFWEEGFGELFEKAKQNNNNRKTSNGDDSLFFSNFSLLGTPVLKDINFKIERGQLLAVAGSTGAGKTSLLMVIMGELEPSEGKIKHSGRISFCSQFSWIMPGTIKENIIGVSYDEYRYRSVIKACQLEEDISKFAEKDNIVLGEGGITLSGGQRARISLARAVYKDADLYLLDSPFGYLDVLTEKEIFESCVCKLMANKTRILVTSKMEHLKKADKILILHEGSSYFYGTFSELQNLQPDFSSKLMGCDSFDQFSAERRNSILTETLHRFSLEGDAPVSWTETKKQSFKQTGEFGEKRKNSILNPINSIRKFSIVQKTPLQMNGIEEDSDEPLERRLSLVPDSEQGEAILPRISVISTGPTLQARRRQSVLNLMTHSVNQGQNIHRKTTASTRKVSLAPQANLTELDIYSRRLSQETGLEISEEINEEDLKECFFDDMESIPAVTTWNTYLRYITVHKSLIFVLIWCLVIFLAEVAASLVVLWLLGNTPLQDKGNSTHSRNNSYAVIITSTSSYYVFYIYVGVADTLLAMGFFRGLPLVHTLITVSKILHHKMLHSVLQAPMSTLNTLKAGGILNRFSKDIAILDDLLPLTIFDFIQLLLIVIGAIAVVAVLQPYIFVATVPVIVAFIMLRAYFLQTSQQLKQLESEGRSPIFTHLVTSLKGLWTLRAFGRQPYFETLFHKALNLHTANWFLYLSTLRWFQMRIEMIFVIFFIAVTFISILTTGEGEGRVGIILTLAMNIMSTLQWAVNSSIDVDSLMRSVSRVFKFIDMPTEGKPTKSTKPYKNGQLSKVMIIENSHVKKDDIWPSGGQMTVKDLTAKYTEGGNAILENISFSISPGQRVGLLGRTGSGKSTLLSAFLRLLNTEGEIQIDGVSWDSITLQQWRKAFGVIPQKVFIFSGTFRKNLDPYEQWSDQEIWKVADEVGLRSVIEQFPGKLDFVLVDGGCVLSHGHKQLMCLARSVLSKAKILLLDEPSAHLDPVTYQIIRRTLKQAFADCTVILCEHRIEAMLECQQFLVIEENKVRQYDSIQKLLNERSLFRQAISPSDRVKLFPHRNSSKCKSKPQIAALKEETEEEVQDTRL

An EC50 (CFTR ΔF508 mutant) of 31.1 nM and an EC50 (CFTR G551D mutant) of 1160 nM were found for `Cc1ccc(S(=O)(=O)c2cc(C(N)=O)c(NC(=O)C(C)(C)O)s2)cc1` [Compound 316, 2-(2-Hydroxy-2-methyl-propionylamino)-5-(toluene-4-sulfonyl)-thiophene-3-carboxylic acid amide] in this work.
An EC50 (CFTR ΔF508 mutant) of 241 nM and an EC50 (CFTR G551D mutant) of 3330 nM were found for `CC(C)(O)C(=O)Nc1sc(S(=O)(=O)c2ncccc2Cl)cc1C(N)=O` [Compound 317, 5-(3-Chloro-pyridine-2-sulfonyl)-2-(2-hydroxy-2-methyl-propionylamino)-thiophene-3-carboxylic acid amide] in this work.
An EC50 (CFTR ΔF508 mutant) of 20.2 nM and an EC50 (CFTR G551D mutant) of 716 nM were found for `CC(O)C(=O)Nc1sc(S(=O)(=O)c2ccc(OC(F)(F)F)cc2)cc1C(N)=O` (stereo not shown) [Compound 318, 2-(2-Hydroxy-propionylamino)-5-(4-trifluoromethoxy-benzenesulfonyl)-thiophene-3-carboxylic acid amide] in this work.
An EC50 (CFTR ΔF508 mutant) of 8.2 nM and an EC50 (CFTR G551D mutant) of 377 nM were found for `NC(=O)c1cc(S(=O)(=O)c2ccccc2OC(F)(F)F)sc1NC(=O)CO` [Compound 319, 2-(2-Hydroxy-acetylamino)-5-(2-trifluoromethoxy-benzensulfonyl)-thiophene-3-carboxylic acid amide] in this work.
An EC50 (CFTR ΔF508 mutant) of 12.3 nM and an EC50 (CFTR G551D mutant) of 1930 nM were found for `CC(O)C(=O)Nc1sc(S(=O)(=O)c2ccccc2Cl)cc1C(N)=O` (stereo not shown) [Compound 321, 5-(2-Chloro-benzenesulfonyl)-2-(2-hydroxy-propionylamino)-thiophene-3-carboxylic acid amide] in this work.
An EC50 (CFTR ΔF508 mutant) of 41.1 nM and an EC50 (CFTR G551D mutant) of 919 nM were found for `CC(C)Oc1ccc(S(=O)(=O)c2cc(C(N)=O)c(NC(=O)C(C)(C)O)s2)c(Cl)c1` [Compound 322, 5-(2-Chloro-4-isopropoxy-benzenesulfonyl)-2-(2-hydroxy-2-methyl-propionylamino)-thiophene-3-carboxylic acid amide] in this work.
An EC50 (CFTR ΔF508 mutant) of 84.2 nM and an EC50 (CFTR G551D mutant) of 3160 nM were found for `CC(C)Oc1ccc(S(=O)(=O)c2cc(C(N)=O)c(NC(=O)C(C)(C)O)s2)c(C(F)(F)F)c1` [Compound 324, 2-(2-Hydroxy-2-methyl-propionylamino)-5-(4-isopropoxy-2-trifluoromethyl-benzenesulfonyl)-thiophene-3-carboxylic acid amide] in this work.
With `Cc1ncccc1S(=O)(=O)c1cc(C(N)=O)c(NC(=O)C(C)O)s1` (stereo not shown) [Compound 326, 2-(2-hydroxypropanoylamino)-5-[(2-methyl-3-pyridyl)sulfonyl] thiophene-3-carboxamide] the EC50 (CFTR ΔF508 mutant) was 1060 nM and the EC50 (CFTR G551D mutant; class symbol) was > 1000 nM.
An EC50 (CFTR ΔF508 mutant) of 134 nM and an EC50 (CFTR G551D mutant) of 3330 nM were found for `C[C@@H](O)C(=O)Nc1sc(S(=O)(=O)c2ccc(F)cc2)cc1C(N)=O` [Compound 327, 5-(4-fluorophenyl) sulfonyl-2-[[(2R)-2-hydroxypropanoyl]amino] thiophene-3-carboxamide] in this work.
An EC50 (CFTR ΔF508 mutant) of 25.8 nM and an EC50 (CFTR G551D mutant) of 427 nM were found for `CC(O)C(=O)Nc1sc(S(=O)(=O)c2ccc(OC(F)(F)F)cc2Cl)cc1C(N)=O` (stereo not shown) [Compound 328, 5-[2-chloro-4-(trifluoromethoxy)phenyl] sulfonyl-2-(2-hydroxypropanoylamino) thiophene-3-carboxamide] in this work.
An EC50 (CFTR ΔF508 mutant) of 5.3 nM and an EC50 (CFTR G551D mutant) of 62.2 nM were found for `CC(C)(O)C(=O)Nc1sc(S(=O)(=O)c2cccc3c2OC(F)(F)O3)cc1C(N)=O` [Compound 330, 5-[(2,2-difluoro-1,3-benzodioxol-4-yl)sulfonyl]-2-[(2-hydroxy-2-methyl-propanoyl)amino] thiophene-3-carboxamide] in this work.
An EC50 (CFTR ΔF508 mutant) of 22.8 nM and an EC50 (CFTR G551D mutant) of 525 nM were found for `C[C@@H](O)C(=O)Nc1sc(S(=O)(=O)c2ccc(OC(F)(F)F)cc2)cc1C(N)=O` [Compound 332, 2-[[(2R)-2-hydroxypropanoyl]amino]-5-[4-(trifluoromethoxy)phenyl] sulfonyl-thiophene-3-carboxamide] in this work.
An EC50 (CFTR ΔF508 mutant) of 5.7 nM and an EC50 (CFTR G551D mutant) of 107 nM were found for `CC(O)C(=O)Nc1sc(S(=O)(=O)c2cc(F)ccc2C(F)(F)F)cc1C(N)=O` (stereo not shown) [Compound 335, 5-[5-fluoro-2-(trifluoromethyl)phenyl] sulfonyl-2-(2-hydroxypropanoylamino) thiophene-3-carboxamide] in this work.
An EC50 (CFTR ΔF508 mutant) of 12.2 nM and an EC50 (CFTR G551D mutant) of 872 nM were found for `CC(C)(O)C(=O)Nc1sc(S(=O)(=O)c2cc(F)c(F)cc2Cl)cc1C(N)=O` [Compound 336, 5-(2-Chloro-4,5-difluoro-benzenesulfonyl)-2-(2-hydroxy-2-methyl-propionylamino)-thiophene-3-carboxylic acid amide] in this work.
An EC50 (CFTR ΔF508 mutant) of 5.4 nM and an EC50 (CFTR G551D mutant) of 859 nM were found for `CC(C)(O)C(=O)Nc1sc(S(=O)(=O)c2cc(F)ccc2CC(F)(F)F)cc1C(N)=O` [Compound 338, 5-[5-fluoro-2-(2,2,2-trifluoroethyl)phenyl]sulfonyl-2-[(2-hydroxy-2-methyl-propanoyl)amino] thiophene-3-carboxamide] in this work.
An EC50 (CFTR ΔF508 mutant) of 8.1 nM and an EC50 (CFTR G551D mutant) of 1750 nM were found for `NC(=O)c1cc(S(=O)(=O)c2cc(F)ccc2Cl)sc1NC(=O)CO` [Compound 339, 5-(2-Chloro-5-fluoro-benzensulfonyl)-2-(2-hydroxy-acetylamino)-thiophene-3-carboxylic acid amide] in this work.
An EC50 (CFTR ΔF508 mutant) of 8 nM and an EC50 (CFTR G551D mutant) of 478 nM were found for `NC(=O)c1cc(S(=O)(=O)c2cc(F)ccc2CC(F)(F)F)sc1NC(=O)CO` [Compound 340, 5-[5-Fluoro-2-(2,2,2-trifluoro-ethyl)-benzenesulfonyl]-2-(2-hdyroxy-acetylamino)-thiophene-3-carboxylic acid amide] in this work.
An EC50 (CFTR ΔF508 mutant) of 20.2 nM and an EC50 (CFTR G551D mutant) of 1510 nM were found for `CC(C)C(O)C(=O)Nc1sc(S(=O)(=O)c2ccc(F)cc2)cc1C(N)=O` (stereo not shown) [Compound 341, 5-(4-fluorophenyl)sulfonyl-2-[(2-hydroxy-3-methyl-butanoyl)amino] thiophene-3-carboxamide] in this work.
An EC50 (CFTR ΔF508 mutant) of 105 nM and an EC50 (CFTR G551D mutant) of 771 nM were found for `CC(C)(C)C(O)C(=O)Nc1sc(S(=O)(=O)c2ccc(F)cc2)cc1C(N)=O` (stereo not shown) [Compound 342, 5-(4-fluorophenyl)sulfonyl-2-[(2-hydroxy-3,3-dimethyl-butanoyl)amino] thiophene-3-carboxamide] in this work.
An EC50 (CFTR ΔF508 mutant) of 92.4 nM and an EC50 (CFTR G551D mutant) of 1420 nM were found for `CC(C)CC(O)C(=O)Nc1sc(S(=O)(=O)c2ccc(F)cc2)cc1C(N)=O` (stereo not shown) [Compound 343, 5-(4-fluorophenyl)sulfonyl-2-[(2-hydroxy-4-methyl-pentanoyl)amino] thiophene-3-carboxamide] in this work.
An EC50 (CFTR ΔF508 mutant) of 36 nM and an EC50 (CFTR G551D mutant) of 237 nM were found for `CC(C)(O)C(=O)Nc1sc(S(=O)(=O)c2ccc(C(F)(F)F)cc2)cc1C(N)=O` [Compound 344, 2-[(2-hydroxy-2-methyl-propanoyl)amino]-5-[4-(trifluoromethyl)phenyl] sulfonyl-thiophene-3-carboxamide] in this work.
An EC50 (CFTR ΔF508 mutant) of 111 nM and an EC50 (CFTR G551D mutant) of 528 nM were found for `CC(C)C(O)C(=O)Nc1sc(S(=O)(=O)c2ccc(OC(F)(F)F)cc2)cc1C(N)=O` (stereo not shown) [Compound 345, 2-[(2-hydroxy-3-methyl-butanoyl)amino]-5-[4-(trifluoromethoxy)phenyl] sulfonyl-thiophene-3-carboxamide] in this work.
An EC50 (CFTR ΔF508 mutant) of 470 nM and an EC50 (CFTR G551D mutant) of 682 nM were found for `CC(C)CC(O)C(=O)Nc1sc(S(=O)(=O)c2ccc(OC(F)(F)F)cc2)cc1C(N)=O` (stereo not shown) [Compound 346, 2-[(2-hydroxy-4-methyl-pentanoyl)amino]-5-[4-(trifluoromethoxy)phenyl] sulfonyl-thiophene-3-carboxamide] in this work.
An EC50 (CFTR ΔF508 mutant) of 343 nM and an EC50 (CFTR G551D mutant) of 931 nM were found for `CC(C)(C)C(O)C(=O)Nc1sc(S(=O)(=O)c2ccc(OC(F)(F)F)cc2)cc1C(N)=O` (stereo not shown) [Compound 349, 2-[(2-hydroxy-3,3-dimethyl-butanoyl)amino]-5-[4-(trifluoromethoxy)phenyl] sulfonyl-thiophene-3-carboxamide] in this work.
An EC50 (CFTR ΔF508 mutant) of 39 nM and an EC50 (CFTR G551D mutant) of 668 nM were found for `CC(CO)C(=O)Nc1sc(S(=O)(=O)c2ccc(OC(F)(F)F)cc2)cc1C(N)=O` (stereo not shown) [Compound 350, 2-[(3-hydroxy-2-methyl-propanoyl)amino]-5-[4-(trifluoromethoxy)phenyl] sulfonyl-thiophene-3-carboxamide] in this work.
An EC50 (CFTR ΔF508 mutant) of 3 nM and an EC50 (CFTR G551D mutant) of 37.3 nM were found for `CC(CO)C(=O)Nc1sc(S(=O)(=O)c2cc(F)ccc2OC(F)(F)F)cc1C(N)=O` (stereo not shown) [Compound 351, 5-[5-fluoro-2-(trifluoromethoxy)phenyl] sulfonyl-2-[(3-hydroxy-2-methyl-propanoyl)amino] thiophene-3-carboxamide] in this work.

Source: patent publication US9382254B2, “Compounds and pharmaceutical compositions thereof for the treatment of cystic fibrosis” (Galapagos NV, priority 2013, dated 2016)
